Reference: patent US6524820B1, “Lectins and coding sequences” (University of Georgia Research Foundation, Inc., priority 1997, dated 2003)

How the values were obtained:
recombinant XL35 [1] = assay: Inhibition of XL35 erythrocyte agglutination activity; assay type: cell-based, Xenopus laevis; conditions: 2 M urea
Description: The assay was performed essentially as described using trypsinized, glutaraldehyde-fixed rabbit erythrocytes [Barondes and Roberson (1987) Methods Enzymol. 138, 516-20] in TCS buffer (10 mM Tris, pH 7.6, 10 mM CaCl2, 150 mM NaCl). To compare the agglutination properties of both the purified and recombinant lectins, the two lectins were assayed under similar conditions. Because the eluted recombinant lectin was in 8 M urea, a solution of purified non-recombinant lectin was also brought to 8 M with a concentrated urea solution. The agglutination assay was performed using […] of either recombinant or native XL35 lectin in […] TCS and 8 M urea was added to wells of a 96-well microtiter plate. Next, […] of TCS alone or TCS containing 0.4 M EDTA or 1.0 M melibiose or 1.0 M sucrose was added to the wells and mixed with the lectin solution. To this solution, 50 ml of a 1:1 suspension of trypsinized, glutaraldehyde-fixed rabbit erythrocytes in TCS was added and the contents of the wells were mixed by trituration. The final concentration of urea in the wells was 2 M, while that of EDTA was 0.10 M and that of melibiose and sucrose were 0.25 M. Agglutination activity was scored after 1.5 hr. at room temperature using an inverted microscope on low power. After 1.5 hr in TCS plus 2 M urea, the purified oocyte lectin retained about 25-50% of the agglutination activity observed when it was assayed in TCS alone, but the relative abilities of various sugars to inhibit the agglutination reaction were similar in the presence or absence of urea. The recombinant lectin precipitated in the absence of urea; therefore, at least 2 M urea was used in the agglutination assay.

recombinant XL35 [2] = conditions: in the presence of Ca++; literature (Clark 1987); cited from earlier work

Row | SMILES | inhibition of recombinant XL35 agglutination activity (recombinant XL35 [1]; inhibitor at 0.1 M) | inhibition of agglutination of trypsinized rabbit erythrocytes by frog oocyte lectins (recombinant XL35 [2]) | inhibition of recombinant XL35 agglutination activity (recombinant XL35 [1]; inhibitor at 0.25 M)
1 | O=C(O)CN(CCN(CC(=O)O)CC(=O)O)CC(=O)O [EDTA] | completely inhibited | – | –
2 | OC[C@H]1O[C@H](OCC2O[C@@H](O)[C@H](O)[C@@H](O)[C@@H]2O)[C@H](O)[C@@H](O)[C@H]1O (stereo partly shown) [melibiose] | – | strongly inhibited | completely inhibited
3 | OC[C@H]1O[C@@](CO)(O[C@H]2O[C@H](CO)[C@@H](O)[C@H](O)[C@H]2O)[C@@H](O)[C@@H]1O [sucrose] | – | – | not
